Results taken from patent publication US20080286340A1, “Buffered nicotine containing products” (priority 2007, published 2008).
Where two headings read alike, the source gives them in different places.

What was measured:
[1] = pKa falling in interval 8-9.6; cited from earlier work
[2] = cited from earlier work
[3] = smoking a cigarette; cited from earlier work
[4] = at 37° C.; cited from earlier work

SMILES	pKa value (in interval 8-9.6) [1]	Solubility in water ([2]; water)	other results
NC(=O)C[C@H](N)C(=O)O [Aspargine]	8.73		
N[C@@H](CS(=O)(=O)O)C(=O)O [Cysteic acid]		Very soluble	
N[C@@H](CCC(=O)O)C(=O)O [Glutamic acid]	9.58		
NC(=O)CC[C@H](N)C(=O)O [Glutamine]		42 g/kg	
N[C@@H](Cc1c[nH]cn1)C(=O)O [Histidine]			Solubility in water [2]: 43.5 g/kg
CC[C@H](C)[C@H](N)C(=O)O [Isoleucine]		34.2 g/kg	
CC(C)C[C@H](N)C(=O)O [Leucine]		22.0 g/kg	
NCCCC[C@H](N)C(=O)O [Lysine]	9.16		Solubility in water [2]: Very soluble^a)b)
CSCC[C@H](N)C(=O)O [Methionine]			Solubility in water [2]: 56 g/kg
N[C@@H](Cc1ccccc1)C(=O)O [Phenylalanine]	9.09	27.9 g/kg	
CC(C)[C@H](N)C(=O)O [Valine]		88.5 g/kg	
CN1CCCC1c1cccnc1 (centres unmarked) [nicotine, 3-(1-methyl-2-pyrrolidinyl)pyridine]			time until nicotine reaches the brain after inhalation [3]: around ten; nicotine in the non-charged base form (assuming a pH of the saliva of 6.8): about 10%; nicotine in the free readily absorbable base form (at a pH of 9.0): more than 90%; pKa (acid-base equilibrium of nicotine) [4]: ~7.8
